Like-named read-outs stand apart in the source and are kept apart here.
Tests used:
[1] = test system: Zluc cells; assay: cytotoxicity evaluation (CellTiter-Blue Cell Viability Assay); details: read-out: HCV Replicon CC50; Zluc cells, CellTiter-Blue
[2] = test system: HCV genotype 1b replicon; assay: HCV Replicon Assay; assay type: cell-based; details: Zluc cells (Huh-7-derived, HCV genotype 1b replicon, luciferase reporter), 72 hours; read-out: HCV Replicon EC50
In short: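 Zluc Huh-7 cells with HCV genotype 1b replicon and luciferase reporter treated with 5-fold dilutions (100 μM to 0.0000512 μM final) in duplicate, or at 1 and 10 μM. Luminescence read with ONE-glo; EC50 from dose-response fits, or % inhibition at the fixed concentrations.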

[3] = Stability in simulated intestinal fluid; assay type: in vitro ADME; details: 100 μM, 2 hours at 37° C., percent of the peak area at time zero
In short: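 Compounds at 100 μM final, in duplicate, kept 2 h at 37° C in USP gastric fluid (pepsin) or intestinal fluid (pancreatin). Quenched with cold acetonitrile, supernatant analysed by C-18 HPLC, UV 252 nm. Remaining compound expressed as percent of time-zero peak area.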

[4] = Stability in fresh human whole blood; assay type: in vitro ADME; details: 0.5 μM, percent unchanged test compound
In short: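 Test compound at 0.5 μM was incubated at 37 °C in fresh human K2EDTA whole blood, stored at 2–8 °C and used within 7 days, in triplicate. Samples taken at 0, 0.5, 1 and 2 h were quenched in cold acetonitrile containing internal standard and analysed by LC-MS/MS. Percent unchanged compound was derived from peak-area ratios.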

[5] = Stability in liver subcellular fractions (microsomes); assay type: in vitro ADME, human; details: 10 μM, 1.0 mg/mL microsomal protein, NADPH, 60 min, percent unchanged test compound
Description: Stability of compounds were determined in subcellular fractions (microsomes) of human liver in duplicate for each matrix. Pooled liver microsomal proteins (1.0 mg/mL), suspended in incubation buffer (100 mM potassium phosphate, pH 7.4, 5 mM MgCl2, and 0.1 mM EDTA), were preincubated for 5 min at 37° C. with 10 μM of a test compound from a 10 mM stock solution in DMSO (final DMSO concentration was 0.1%); the reaction was initiated by the addition of NADPH (3 mM final concentration). At specific times (0 and 60 min), 0.1 mL samples were taken and the reaction terminated by the addition of 4 volumes of stop solution (acetonitrile with 500 ng/mL carbutamide as an internal standard). The samples were vortexed for 30 sec and then centrifuged at 16,000 g for 10 min. 100 μL of supernatants were transferred to 96 deep-well plates preloaded with 100 μL distilled water and analyzed after mixing by LC-MS/MS. The MS peak area ratio of the test compounds versus the internal standard was calculated and percent unchanged test compound over 60 minutes was calculated using this ratio.

[6] = test system: fresh human hepatocytes; assay: Release of active metabolite in fresh human hepatocytes; assay type: in vitro ADME; details: 10 μM compound; for FHH TP Cmax: fresh human hepatocytes; for FHH TP AUC: fresh human hepatocytes, 6, 24 and 48 hours
In short: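 Overnight-acclimatized hepatocytes (0.8 million cells/well human, 0.5 million mouse) incubated at 37 °C with 10 μM test compound (0.1% DMSO). Sampled at 6, 24, 48 h (human) or 1, 4, 8, 12, 24 h (mouse); cells washed, extracted in cold 70% methanol, intracellular content quantified by LC-MS/MS with internal standard.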

[7] = Stability in simulated gastric fluid; assay type: in vitro ADME; details: 100 μM, 2 hours at 37° C., percent of the peak area at time zero
Description: Simulated gastric and intestinal fluids containing pepsin and pancreatin respectively were prepared according to the U.S. Pharmacopoeia USP291 procedure (www.pharmacopeia.cn/v29240/usp29nf24s0_ris1s126.html). Compounds (final concentration 100 μM) were incubated in duplicate in the appropriate fluid for 2 hours at 37° C. The samples were quenched with 200 μl cold acetonitrile, vortexed for 30 seconds and then centrifuged at 16,100 g for 10 min. The supernatants were analyzed by HPLC on a C-18 column with UV detection at 252 nm. The time 0 samples were prepared by adding SGF or SIF fluid to the quenching solvent followed by the test compound. Stability of the compounds was determined by peak area of the test compounds after incubation and calculated as percent of the peak area observed at time zero.

[8] = Stability in mouse blood; assay type: in vitro ADME; details: on ice, percent unchanged test compound
In short: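 Test compound at 0.5 μM final in whole blood, held on ice; sampled at 0, 0.5 and 1 hr in triplicate. Samples quenched with acetonitrile containing internal standard and analysed by LC-MS/MS; percent unchanged compound from peak area ratio to internal standard.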

[9] = test system: Zluc cells
[10] = test system: Huh-7 cells; assay: Release of active metabolite in Huh-7 cells; assay type: in vitro ADME, human; details: 10 μM compound
Description: Huh-7 cells were plated in 1 mL culture medium (DMEM, containing glucose, L-glutamine and sodium pyruvate, 10% FBS, 100 IU/mL penicillin, 100 μg/mL streptomycin, 2 mM GlutaMAX, 1% MEM non-essential amino acids) at the concentration 0.8, 0.4 and 0.2 million cells per well on 6 well plates for 24, 48 and 72 hr treatment, respectively. Plated cells were incubated overnight at 37° C. in an incubator.
The following morning compounds was diluted to 20 μM from a stock solution in DMSO in fresh culture medium pre-warmed to 37° C. and 1 mL of the solution/well was added to cells. A final medium volume per well was 2.0 mL, Compound concentration in well was 10 μM and final DMSO concentration was 0.1%.
After 24, 48 or 72 hr, the medium was carefully removed and cell monolayers were washed twice with 2 mL ice-cold PBS per well. Following the last wash, all PBS was carefully removed and 1.0 mL of extraction solution (ice-cold 70% methanol) added. The plate was tightly covered with Parafilm, plastic plate cover and Parafilm again and an intracellular content was extracted at −20° C. for 24 hr.
After 24 hr extracts were transferred into polypropylene microfuge tubes and dried on a refrigerated centrivap concentrator. Dry residues were reconstituted in 250 μL of HPLC-grade water and centrifuged at 16,000×g for 10 min. Aliquots (100 μL each) of the supernatants were transferred into a 96 well plate and internal standard (4 ng/mL final concentration) was added as the internal standard (IS) for LC-MS/MS analysis.

[11] = target: T1, carboxylesterase 1 (CES1) (Homo sapiens, UniProt P23141); assay: CES1 hydrolysis assay; assay type: in vitro ADME
T1 construct: purchased R & D Systems (Minneapolis, Minn.)
T1 sequence (P23141 18-567): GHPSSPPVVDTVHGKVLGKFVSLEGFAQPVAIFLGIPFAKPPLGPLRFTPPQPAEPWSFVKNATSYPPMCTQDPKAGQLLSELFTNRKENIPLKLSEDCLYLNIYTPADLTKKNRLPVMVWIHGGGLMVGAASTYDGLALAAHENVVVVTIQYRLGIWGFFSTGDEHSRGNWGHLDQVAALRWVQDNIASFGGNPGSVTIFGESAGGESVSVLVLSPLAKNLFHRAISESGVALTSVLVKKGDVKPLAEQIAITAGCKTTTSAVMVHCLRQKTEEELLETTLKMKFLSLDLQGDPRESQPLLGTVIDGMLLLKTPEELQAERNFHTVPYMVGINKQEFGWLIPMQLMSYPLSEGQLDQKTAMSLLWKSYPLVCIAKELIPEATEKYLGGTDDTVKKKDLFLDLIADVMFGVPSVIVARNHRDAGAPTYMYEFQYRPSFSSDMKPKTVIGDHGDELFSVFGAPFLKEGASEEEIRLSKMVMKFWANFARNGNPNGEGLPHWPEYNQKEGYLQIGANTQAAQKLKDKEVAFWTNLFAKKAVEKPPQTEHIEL
Description: CES1 assay was performed at 37° C. in the reaction mixture containing 50 mM Tris/HCl buffer pH 7.5 and 100 μM of the compound. Reaction was started by addition of the CES1 to the final concentration 0.01 μg/mL. 100 μL aliquots were taken after 0.5 min, 3 hrs and 21 hrs of the incubation and the reaction was stopped by mixing with 100 μl of the ice-cold methanol prior to HPLC analysis.
(§1) Samples were analyzed by HPLC using 5μ C-18, 4.6×250 mm Phenomenex® Columbus column (Phenomenex USA, CA). The mobile phase consisted of buffer A (25 mM potassium phosphate with 5 mM tetrabutylammonium dihydrogen phosphate pH 6.3) and buffer B (100% methanol).

[12] = target: T2, cathepsin A (CatA) (Homo sapiens, UniProt P10619); assay: CatA hydrolysis assay; assay type: in vitro ADME
T2 construct: purchased R & D Systems (Minneapolis, Minn.)
T2 sequence (P10619 29-326 limits assumed): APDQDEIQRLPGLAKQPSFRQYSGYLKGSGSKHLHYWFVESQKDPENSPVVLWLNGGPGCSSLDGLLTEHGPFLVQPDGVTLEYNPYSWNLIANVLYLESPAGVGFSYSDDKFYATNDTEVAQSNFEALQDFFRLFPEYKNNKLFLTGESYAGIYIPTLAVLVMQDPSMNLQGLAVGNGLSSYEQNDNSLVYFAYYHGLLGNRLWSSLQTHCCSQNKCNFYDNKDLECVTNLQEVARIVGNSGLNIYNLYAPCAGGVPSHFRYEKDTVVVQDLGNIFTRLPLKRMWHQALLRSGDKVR
T2 sequence (P10619 327-480 limits assumed): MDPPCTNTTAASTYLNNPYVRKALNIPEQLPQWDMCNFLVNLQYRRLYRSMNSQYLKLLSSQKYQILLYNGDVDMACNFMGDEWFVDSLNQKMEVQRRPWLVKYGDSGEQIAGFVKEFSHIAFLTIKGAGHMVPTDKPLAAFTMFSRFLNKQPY
Description: CatA, cathepsin L (CatL) and CES1 were purchased from R & D Systems (Minneapolis, Minn.). Prior to the enzymatic hydrolysis reactions, CatA was activated according to the manufacturer's instruction. Briefly, CatA (0.05 μg/μL) was incubated with CatL (0.005 μg/μL) for 30 min at 37° C. in 25 mM MES pH 6.0 containing 5 mM DTT. The reaction was stopped by addition of the CatL specific inhibitor E64 (10 μM).
The CatA assay was performed at 37° C. The reaction mixture contained 25 mM MES buffer pH 6.0, 100 mM NaCl, 4 mM DTT and 100 μM of the compound. The reaction was started by addition of the activated CatA enzyme to a final concentration of 0.005 μg/μL. One hundred-μL aliquots were taken after 0.5 min, 3 hrs and 18 hrs of incubation. Reactions were stopped by mixing the sample with an equal volume of ice-cold methanol, and were loaded on a HPLC for analysis.
as §1

CCOC(=O)COP1(=O)OC[C@H]2O[C@@H](n3cnc4c(OCC)nc(N)nc43)[C@](C)(F)[C@@H]2O1 (single isomer, unassigned; diastereomer 1) [Compound 7 Diastereomer 1]
CC50 [1]: > 50000 nM | EC50 [2]: < 250 nM | Stability SIF [3]: 50% | Stability WB_Human (37° C.; 2 hr) [4]: 25% | Stability HLM (1 hr) [5]: 0.5% | FHH TP Cmax [6]: 31 pmol/mill cells | FHH TP AUC [6]: 377 pmol · hr/mill cells | Stability SGF [7]: 87% | Stability WB_Mouse (ice; 1 hr) [8]: 1%

CCOc1nc(N)nc2c1ncn2C1OC2COP(=O)(OCC(NC(=O)OC)C(C)(C)C)OC2C1(C)F (single isomer, unassigned; diastereomer 1) [Compound 10 Diastereomer 1]
CC50 [9]: > 50000 nM | EC50 [2]: 250 to 1000 nM

CCOc1nc(N)nc2c1ncn2C1OC2COP(=O)(Oc3ccc(CC(NC(=O)OC)C(=O)OC(C)C)cc3)OC2C1(C)F (single isomer, unassigned; diastereomer 1) [Compound 13 Diastereomer 1]
CC50 [1]: > 50000 nM | EC50 [2]: < 250 nM | Stability SIF [3]: 72% | Stability WB_Human (37° C.; 2 hr) [4]: 29% | Stability HLM (1 hr) [5]: 0.4% | FHH TP Cmax [6]: 44 pmol/mill cells | FHH TP AUC [6]: 1632 pmol · hr/mill cells | Stability WB_Mouse (ice; 1 hr) [8]: 1%

CCOc1nc(N)nc2c1ncn2[C@@H]1O[C@@H]2COP(=O)(OCCSSC(C)(C)C)O[C@H]2[C@@]1(C)O (single isomer, unassigned; diastereomer 1) [Compound 23 Diastereomer 1]
CC50 [9]: < 50000 nM | EC50 [2]: < 250 nM

CCOC(=O)CCCOP1(=O)OC[C@H]2O[C@@H](n3cnc4c(OC)nc(N)nc43)[C@](C)(O)[C@@H]2O1 (single isomer, unassigned; diastereomer 1) [Compound 25 Diastereomer 1]
Huh-7 TP (24 hr) ([10]; 24 hr): 25 | Huh-7 TP (48 hr) ([10]; 48 hr): 28 | Huh-7 TP (72 hr) ([10]; 72 hr): 36 | Huh-7 TP AUC ([10]; Huh-7 cells): 1697 pmol/mill cells | FHH TP Cmax [6]: 1137 pmol/mill cells | FHH TP AUC [6]: 2245 pmol · hr/mill cells

CCOc1nc(N)nc2c1ncn2[C@@H]1O[C@@H]2COP(=O)(OCCSC(=O)C(C)(C)CO)O[C@H]2[C@@]1(C)OC(C)=O (single isomer, unassigned; diastereomer 2) [Compound 16 Diastereomer 2]
CC50 [9]: < 50000 nM | EC50 [2]: < 250 nM

CC(C)OC(=O)[C@H](C)N[P@@](=O)(OC[C@H]1O[C@@H](n2ccc(=O)[nH]c2=O)[C@](C)(F)[C@@H]1O)Oc1ccccc1 [PSI-7076]
hydrolysis by CES1 (in words) [11]: hydrolyzed | hydrolysis by CatA (in words) [12]: hydrolyzed

Source: patent US9296778B2, “3′,5′-cyclic phosphate prodrugs for HCV infection” (Idenix Pharmaceuticals, Inc., priority 2012, dated 2016)
